Each structure is given as a SMILES string. pIC50: −log10 of the molar value.

The results in this text go back to ChEMBL document CHEMBL1136375, “Design and synthesis of spiro-cyclopentenyl and spiro-[1,3]-dithiolanyl substituted pyrrolidine-5,5-trans-lactams as inhibitors of hepatitis C virus NS3/4A protease” (Bioorg Med Chem Lett, 2003).

In data set [1] the test system is Hepatitis C virus. As to the kind of experiment: Inhibitory activity against hepatitis C virus protease enzyme(HCV) NS3/4A. It counts as functional, Hepacivirus hominis.
For data set [2], the system named is Hepatitis C virus. Description: Inhibitory activity against hepatitis C virus protease enzyme(HCV) by using ELISA replicon assay. It counts as functional, organism-based, Hepacivirus hominis. A general note: In an ELISA, binding on a coated surface is turned into a signal by an enzyme label.
The nature of data set [3]: In vitro stability behavior at 4 hr. It counts as physicochemical. The following applies: read-out: Turnover.

As to `CCN(CC)C(=O)N1C(=O)C2(CCC2)[C@@H]2[C@@H]1CCN2C(=O)[C@@H](NC(=O)OC(C)(C)C)C(C)C`, in the data set with Hepatitis C virus [1], the “k obs / 1” value was found to be 3.3 M⁻¹ s⁻¹.

By pIC50 is commonly meant the negative decadic logarithm of the IC50, by convention in mol/L. Lower therefore signals a high IC50. In turn, `CC(C)[C@H](NC(=O)OC(C)(C)C)C(=O)N1CC[C@H]2[C@H]1C1(CCC1)C(=O)N2C(=O)C1CC1` gave a pIC50 in the data set on Hepatitis C virus [2] of 5.40. Moreover, the “k obs / 1” value in the data set on Hepatitis C virus [1] is 400 M⁻¹ s⁻¹. For the same compound, in data set [3], the degraded at 4 h was found to be 27%.

`CSC(=O)N1C(=O)C2(CCC2)[C@@H]2[C@@H]1CCN2C(=O)[C@@H](NC(=O)OC(C)(C)C)C(C)C` had a pIC50 in the data set on Hepatitis C virus [2] of 5.10. In addition, the “k obs / 1” value in the data set on Hepatitis C virus [1] came out at 154 M⁻¹ s⁻¹.

In turn, `CC(C)C(=O)N1C(=O)C2(SCCS2)[C@@H]2[C@@H]1CCN2C(=O)C(NC(=O)OC(C)(C)C)C(C)C` (some centres not stated) showed a pIC50 with Hepatitis C virus [2] of 4.77. Also, the “k obs / 1” value with Hepatitis C virus [1] was 362 M⁻¹ s⁻¹. For the same compound, the degraded at 4 h in data set [3] was more than 50%.

For `C=C(C)C(=O)N1C(=O)C2(CCC2)[C@@H]2[C@@H]1CCN2C(=O)[C@@H](NC(=O)OC(C)(C)C)C(C)C`, in the data set on Hepatitis C virus [1], the “k obs / 1” value came to 24 M⁻¹ s⁻¹.

In the case of `CC(C)C(NC(=O)OC(C)(C)C)C(=O)N1CC[C@H]2[C@H]1C1(CC=CC1)C(=O)N2C(=O)C1CC1` (relative stereo), the “k obs / 1” value in the data set with Hepatitis C virus [1] stood at 19 M⁻¹ s⁻¹.

`CC(C)C(NC(=O)OC(C)(C)C)C(=O)N1CC[C@H]2[C@H]1C1(SCCS1)C(=O)N2C(=O)C1CC1` (relative stereo): the pIC50 in the data set with Hepatitis C virus [2] is less than 4.00. The “k obs / 1” value in the data set on Hepatitis C virus [1] is 621 M⁻¹ s⁻¹. For the same compound, the degraded at 4 h in data set [3] is more than 50%.

Turning to `CC(C)C(=O)N1C(=O)C2(CCC2)[C@@H]2[C@@H]1CCN2C(=O)[C@@H](NC(=O)OC(C)(C)C)C(C)C` (relative stereo), the pIC50 in the data set with Hepatitis C virus [2] was 5.51. In the data set on Hepatitis C virus [1], the “k obs / 1” value worked out at 166 M⁻¹ s⁻¹. Further, the degraded at 4 h in data set [3] is 5%.
